Measurements: patent EP0463514B1, “3.3'-Dithiobis (propionic acids) and esters thereof” (priority 1990, dated 1992)
Marks after values point to notes of the source that are not given here.

System: delayed type hypersensitivity (DTH) reaction
Assay: Delayed type hypersensitivity (DTH) reaction in the mouse, OXA sensitization and ear challenge, ear thickness
Type: in vivo, Balb/c mice
Settings: oral feeding from sensitization to Day 6, 100 = doubled ear thickness; for % Increase, 48h: increase in ear thickness 48 hours after OXA challenge
Source text: The property of the compounds of the invention to stimulate immune responses are illustrated by their efficacy in a model in the mouse of the delayed type hypersensitivity (DTH) reaction.
Both male and female Balb/c mice obtained from Bomhotsgaard (Denmark) and Charlie Rivers (England), were used at the weight of 18-20 gram. 4-ethoxymethylene-2-phenyloxazolone (OXA) was purchased from BDH (England) and served as an antigen in this test.
The mice were sensitized, Day 0, by epicutaneous application of 150 ul absolute ethanol-acetone (3:1) solution containing 3% OXA on the shaved thorax and abdomen. Treatment with the compound under examination, DiNAC (as a positive control) or vehicle (phosphate buffer, pH 7.0) was initiated by oral feeding immediately after sensitization and contiuned once to Day 6. […] (Day 6) after the sensitization both ears of all mice were challenged on both sides by topical application of 20 ul 1% OXA dissolved in olive oil. Ear thickness was measured prior to and 24 or 48 hours after challenge using an Oditest spring calliper. Challenges and measurements were performed under light pentobarbital anaesthesia. The intensity of the DTH reactions was expressed according to the formula: Tt24/48-Tt0 um units, where t0 and t24/48 represent the ear thickness before and 24 or 48 hours after challenge, respectively, in individual test (T). The results were expressed as the mean+/-S.E.M. The level of significance between means of the groups was obtained by Student's two-tailed t-test. […] A figure of 100 thus indicates a doubled ear thickness.

With `CCCCCC(=O)N[C@@H](CSSC[C@H](NC(=O)CCCCC)C(=O)OC)C(=O)OC` [Example 9, (R,R)-N,N'-dihexanoyl-3,3'-dithiobis(2-aminopropionic acid)dimethylester] the “% Increase, 48h” value (0.03 »mol/kg) was 51*** % and the “% Increase, 48h” value was 45*** %.
With `CCCCCCCC(=O)N[C@@H](CSSC[C@H](NC(=O)CCCCCCC)C(=O)OC)C(=O)OC` [Example 10, (R,R)-N,N'-di(1-oxo-octyl)-3,3'-dithiobis-(2-aminopropionic acid)dimethylester] the “% Increase, 48h” value (0.03 »mol/kg) was 28** % and the “% Increase, 48h” value was 20* %.
`COC(=O)[C@H](CSSC[C@H](NC(=O)C(C)C)C(=O)OC)NC(=O)C(C)C` [Example 14, (R,R)-N,N'-di(2-methylpropionyl)-3,3'-dithiobis(2-aminopropionic acid)dimethylester] was tested, and the “% Increase, 48h” value (0.03 »mol/kg) was 17* % and the “% Increase, 48h” value was 27*** %.
With `CC(C)(C)C(=O)N[C@@H](CSSC[C@H](NC(=O)C(C)(C)C)C(=O)O)C(=O)O` [Example 21, (R,R)-N,N'-di(2,2-dimethylpropionyl)-3,3'-dithiobis(2-aminopropionic acid)] the “% Increase, 24h” value (increase in ear thickness 24 hours after OXA challenge, 0.03 »mol/kg) was 14* %, the “% Increase, 48h” value (0.03 »mol/kg) was 26* % and the “% Increase, 48h” value was 27* %.
In the case of `CCCCCCCC(=O)N[C@@H](CSSC[C@H](NC(=O)CCCCCCC)C(=O)OCC)C(=O)OCC` [Example 11, (R,R)-N,N'-di(1-oxo-octyl)-3,3'-dithiobis(2-aminopropionic acid)diethylester], the “% Increase, 48h” value (0.03 »mol/kg) is reported as 0% and the “% Increase, 48h” value is reported as 0%.
In the case of `CC(C)C(=O)N[C@@H](CSSC[C@H](NC(=O)C(C)C)C(=O)O)C(=O)O` [Example 16, (R,R)-N,N'-di(2-methylpropionyl)-3,3'-dithiobis(2-aminopropionic acid)], the “% Increase, 48h” value (0.03 »mol/kg) is reported as 27** % and the “% Increase, 48h” value is reported as 62*** %.
With `CC(=O)N[C@@H](CSSC[C@H](NC(=O)C(C)(C)C)C(=O)O)C(=O)O` [Example 20, (R,R)-N-Acetyl-N'-(2,2-dimethylpropionyl)-3,3'-dithiobis(2-aminopropionic acid)] the “% Increase, 48h” value (0.03 »mol/kg) was 14% and the “% Increase, 48h” value was 17* %.
